# In patent US11655235B2, “Pyrrolidine and piperidine compounds” (YUHAN CORPORATION, priority 2019, dated 2023):
# What was measured:
# Type in all cases: biochemical
# [1] = target: T1, recombinant human DPP9 (Homo sapiens, UniProt Q86TI2); assay: DPP9 inhibition, fluorogenic substrate H-Gly-Pro-AMC; settings: recombinant human DPP9
# T1 construct: purchased R&D Systems
# Method in brief: (§1)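 Enzyme per reaction: 50 ng DPP9, 20 ng DPP8, 10 ng each DPP7 and PREP. Compounds were serially diluted (8 points, up to 0.5% DMSO) and incubated at 25 °C.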
# [2] = target: DPP4 (Homo sapiens, UniProt P27487); assay: DPP4 inhibition, fluorogenic substrate H-Gly-Pro-AMC; parameters: purchased R&D Systems; settings: recombinant human DPP4
# Sequence of DPP4 (P27487 whole entry): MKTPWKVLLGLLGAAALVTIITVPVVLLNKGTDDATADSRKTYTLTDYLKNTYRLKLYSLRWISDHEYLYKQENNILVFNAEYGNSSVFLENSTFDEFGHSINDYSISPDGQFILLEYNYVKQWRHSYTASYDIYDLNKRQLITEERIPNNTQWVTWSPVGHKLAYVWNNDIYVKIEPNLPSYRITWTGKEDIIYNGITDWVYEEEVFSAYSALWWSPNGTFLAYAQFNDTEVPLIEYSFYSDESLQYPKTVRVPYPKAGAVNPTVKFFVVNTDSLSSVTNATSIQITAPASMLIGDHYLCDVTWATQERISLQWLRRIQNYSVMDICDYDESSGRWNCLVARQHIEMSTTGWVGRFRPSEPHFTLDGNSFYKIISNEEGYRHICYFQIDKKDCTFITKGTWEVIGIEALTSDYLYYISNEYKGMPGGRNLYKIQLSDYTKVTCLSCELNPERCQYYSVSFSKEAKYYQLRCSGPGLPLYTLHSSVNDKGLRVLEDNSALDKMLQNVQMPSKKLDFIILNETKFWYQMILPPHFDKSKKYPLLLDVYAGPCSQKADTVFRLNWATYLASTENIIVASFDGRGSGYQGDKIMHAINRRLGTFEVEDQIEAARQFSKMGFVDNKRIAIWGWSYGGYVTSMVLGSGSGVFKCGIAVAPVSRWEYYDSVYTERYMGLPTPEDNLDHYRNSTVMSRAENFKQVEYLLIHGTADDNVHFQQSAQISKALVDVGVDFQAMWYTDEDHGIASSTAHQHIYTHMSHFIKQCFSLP
# [3] = target: T2, Recombinant human FAP (Homo sapiens, UniProt Q12884); assay: FAP FRET assay, FGF21-sequence FRET peptide substrate; settings: FRET peptide with human FGF21 sequence, 6 μM, 37° C.
# T2 construct: purchased R&D systems
# T2 sequence (Q12884 1-760): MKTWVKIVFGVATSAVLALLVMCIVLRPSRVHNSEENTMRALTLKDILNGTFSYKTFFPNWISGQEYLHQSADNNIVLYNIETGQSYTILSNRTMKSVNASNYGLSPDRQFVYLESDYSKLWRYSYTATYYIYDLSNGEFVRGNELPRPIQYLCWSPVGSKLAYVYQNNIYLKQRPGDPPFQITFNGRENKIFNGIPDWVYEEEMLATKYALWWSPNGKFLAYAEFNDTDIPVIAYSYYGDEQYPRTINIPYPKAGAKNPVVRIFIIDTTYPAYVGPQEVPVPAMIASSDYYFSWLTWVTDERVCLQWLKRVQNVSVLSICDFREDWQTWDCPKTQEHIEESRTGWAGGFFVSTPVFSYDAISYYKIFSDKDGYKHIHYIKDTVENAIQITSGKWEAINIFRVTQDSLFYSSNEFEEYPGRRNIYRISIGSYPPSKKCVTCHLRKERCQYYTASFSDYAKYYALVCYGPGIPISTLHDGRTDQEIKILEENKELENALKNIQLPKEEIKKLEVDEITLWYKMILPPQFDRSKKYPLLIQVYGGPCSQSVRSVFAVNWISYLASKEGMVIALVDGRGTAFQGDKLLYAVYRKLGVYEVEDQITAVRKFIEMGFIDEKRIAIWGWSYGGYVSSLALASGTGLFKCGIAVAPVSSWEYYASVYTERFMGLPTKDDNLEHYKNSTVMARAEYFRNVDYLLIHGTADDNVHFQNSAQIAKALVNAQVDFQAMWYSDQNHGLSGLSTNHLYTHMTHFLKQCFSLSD
# Method in brief: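 Recombinant human FAP, 10 ng per reaction, in 50 mM HEPES pH 7.2 with 150 mM NaCl, 0.1 mg/ml BSA, 1 mM EDTA; HyLite Fluor 488/QXL 520 FRET peptide of human FGF21 sequence at 6 μM final, ≤0.1% DMSO, 37° C. IC50 from 8-point curves by four-parameter logistic fit.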
# [4] = target: T3, recombinant human PREP (Homo sapiens, UniProt P48147); assay: PREP inhibition, fluorogenic substrate Z-Gly-Pro-AMC; settings: Inhibitory Activity (IC50, nM) PREP, recombinant human PREP
# T3 construct: purchased R&D System
# T3 sequence (P48147 1-710): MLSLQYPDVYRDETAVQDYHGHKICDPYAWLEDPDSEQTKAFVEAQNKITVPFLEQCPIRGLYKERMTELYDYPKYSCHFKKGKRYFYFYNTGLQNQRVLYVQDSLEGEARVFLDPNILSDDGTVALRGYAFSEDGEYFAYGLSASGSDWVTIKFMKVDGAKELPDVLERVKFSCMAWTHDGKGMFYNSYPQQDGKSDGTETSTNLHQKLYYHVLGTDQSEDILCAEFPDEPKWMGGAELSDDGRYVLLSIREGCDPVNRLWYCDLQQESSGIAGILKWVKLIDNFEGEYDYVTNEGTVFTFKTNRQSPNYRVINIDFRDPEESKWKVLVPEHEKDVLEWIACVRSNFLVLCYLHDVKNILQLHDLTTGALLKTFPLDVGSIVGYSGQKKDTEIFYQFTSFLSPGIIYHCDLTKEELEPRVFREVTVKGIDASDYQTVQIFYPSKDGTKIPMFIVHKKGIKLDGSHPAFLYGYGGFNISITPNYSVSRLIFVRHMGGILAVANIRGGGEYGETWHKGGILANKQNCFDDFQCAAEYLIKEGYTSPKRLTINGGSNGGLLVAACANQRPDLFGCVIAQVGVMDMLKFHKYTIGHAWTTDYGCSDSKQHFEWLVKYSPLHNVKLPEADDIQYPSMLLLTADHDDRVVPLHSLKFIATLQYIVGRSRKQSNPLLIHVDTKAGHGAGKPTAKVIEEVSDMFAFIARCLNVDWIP
# Method in brief: as §1
# [5] = target: T4, recombinant human DPP7 (Homo sapiens, UniProt Q9UHL4); assay: DPP7 inhibition, fluorogenic substrate Lys-Pro-AMC; settings: recombinant human DPP7
# T4 construct: purchased R&D Systems
# Method in brief: as §1
# T1 sequence (Q86TI2 whole entry): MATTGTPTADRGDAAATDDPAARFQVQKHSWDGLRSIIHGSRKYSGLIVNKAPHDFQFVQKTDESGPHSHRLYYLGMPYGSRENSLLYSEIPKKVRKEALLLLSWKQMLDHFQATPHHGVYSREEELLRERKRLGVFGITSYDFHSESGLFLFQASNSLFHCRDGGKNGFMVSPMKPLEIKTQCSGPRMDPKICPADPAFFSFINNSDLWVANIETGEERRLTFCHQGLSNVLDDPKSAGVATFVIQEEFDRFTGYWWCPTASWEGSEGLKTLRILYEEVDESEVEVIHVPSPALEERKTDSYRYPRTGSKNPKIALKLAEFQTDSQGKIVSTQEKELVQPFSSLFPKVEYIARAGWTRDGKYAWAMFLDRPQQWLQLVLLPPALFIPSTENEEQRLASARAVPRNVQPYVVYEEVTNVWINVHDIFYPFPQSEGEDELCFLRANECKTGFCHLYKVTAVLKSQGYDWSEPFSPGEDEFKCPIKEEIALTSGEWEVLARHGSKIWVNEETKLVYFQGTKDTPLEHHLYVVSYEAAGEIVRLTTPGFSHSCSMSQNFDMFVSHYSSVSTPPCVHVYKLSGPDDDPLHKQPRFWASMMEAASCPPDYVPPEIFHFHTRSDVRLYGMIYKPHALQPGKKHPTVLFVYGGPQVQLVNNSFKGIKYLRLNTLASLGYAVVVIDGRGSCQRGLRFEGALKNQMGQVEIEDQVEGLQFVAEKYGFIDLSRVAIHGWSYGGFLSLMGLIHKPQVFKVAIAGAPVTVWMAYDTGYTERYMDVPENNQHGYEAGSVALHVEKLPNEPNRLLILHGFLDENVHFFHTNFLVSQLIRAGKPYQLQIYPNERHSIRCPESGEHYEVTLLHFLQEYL
SMILES,IC50 [1] [nM],IC50 [2] [nM],IC50 [3] [nM],IC50 [4] [nM],IC50 [5] [nM]
"N#C[C@@H]1C[C@H](F)CN1C(=O)CN1CC[C@@H](Nc2cc(C(F)(F)F)c3ncccc3c2)C1 [Example 216, (2S,4S)-4-fluoro-1-[2-[(3R)-3-[[8-(trifluoromethyl)-6-quinolyl]amino]pyrrolidin-1-yl]acetyl]pyrrolidine-2-carbonitrile]",822,1350,1.7,2560,399
"CCOc1ccc(N[C@H]2CCN(CC(=O)N3CCC[C@H]3C#N)C2)c2cccnc12 [Example 274, (2S)-1-[2-[(3S)-3-[(8-ethoxy-5-quinolyl)amino]pyrrolidin-1-yl]acetyl]pyrrolidine-2-carbonitrile]",5550,11000,4.4,14900,960
"N#C[C@@H]1C[C@H](F)CN1C(=O)CN1CC[C@H](Nc2cc(C(F)(F)F)c3ncccc3c2)C1 [Example 280, (2S,4S)-4-fluoro-1-[2-[(3S)-3-[[8-(trifluoromethyl)-6-quinolyl]amino]pyrrolidin-1-yl]acetyl]pyrrolidine-2-carbonitrile]",674,839,2.1,970,184
"CN(Cc1ccccc1)C(=O)c1ccc(N[C@H]2CCN(CC(=O)N3CCC[C@H]3C#N)C2)c2cccnc12 [Example 288, N-benzyl-N-methyl-5-[[(3S)-1-[2-oxo-2-[(2S)-2-cyanopyrrolidin-1-yl]ethyl]pyrrolidin-3-yl]amino]quinoline-8-carboxamide]",1210,18500,14,11400,677
"N#C[C@@H]1CCCN1C(=O)CN1CC[C@H](Nc2ccc(C(=O)Nc3cccnc3)c3ncccc23)C1 [Example 290, N-(3-pyridyl)-5-[[(3S)-1-[2-oxo-2-[(2S)-2-cyanopyrrolidin-1-yl]ethyl]pyrrolidin-3-yl]amino]quinoline-8-carboxamide]",567,926,1.1,429,121
"N#C[C@@H]1CCCN1C(=O)CN1CC[C@H](Nc2ccc(C(=O)Nc3ccncc3)c3ncccc23)C1 [Example 291, N-(4-pyridyl)-5-[[(3S)-1-[2-oxo-2-[(2S)-2-cyanopyrrolidin-1-yl]ethyl]pyrrolidin-3-yl]amino]quinoline-8-carboxamide]",2840,12900,4.4,2110,173
"N#C[C@@H]1CCCN1C(=O)CN1CC[C@H](Nc2ccc(C(=O)Nc3ccccn3)c3ncccc23)C1 [Example 293, N-(2-pyridyl)-5-[[(3S)-1-[2-oxo-2-[(2S)-2-cyanopyrrolidin-1-yl]ethyl]pyrrolidin-3-yl]amino]quinoline-8-carboxamide]",1250,2670,0.8,422,122

# Continued, values first:
IC50 [1] [nM],IC50 [2] [nM],IC50 [3] [nM],IC50 [4] [nM],IC50 [5] [nM],SMILES
631,1160,1.5,3150,544,"N#C[C@@H]1C[C@H](F)CN1C(=O)CN1CC[C@@H](Nc2cc(Cl)c3ncccc3c2)C1 [Example 215, (2S,4S)-4-fluoro-1-[2-[(3R)-3-[(8-chloro-6-quinolyl)amino]pyrrolidin-1-yl]acetyl]pyrrolidine-2-carbonitrile]"
1590,1430,1.7,6120,90.4,"CCOc1ccc(N[C@H]2CCN(CC(=O)N3C[C@@H](F)C[C@H]3C#N)C2)c2cccnc12 [Example 275, (2S,4S)-4-fluoro-1-[2-[(3S)-3-[(8-ethoxy-5-quinolyl)amino]pyrrolidin-1-yl]acetyl]pyrrolidine-2-carbonitrile]"
5330,977,14,3030,3490,"N#C[C@@H]1C[C@H](F)CN1C(=O)CN1CC[C@H](Nc2ccc(O)c3ncccc23)C1 [Example 276, (2S,4S)-4-fluoro-1-[2-[(3S)-3-[(8-hydroxy-5-quinolyl)amino]pyrrolidin-1-yl]acetyl]pyrrolidine-2-carbonitrile]"
740,1040,3,1230,193,"Cc1cc(N[C@H]2CCN(CC(=O)N3C[C@@H](F)C[C@H]3C#N)C2)cc2cccnc12 [Example 277, (2S,4S)-4-fluoro-1-[2-[(3S)-3-[(8-methyl-6-quinolyl)amino]pyrrolidin-1-yl]acetyl]pyrrolidine-2-carbonitrile]"
593,610,3.5,1280,615,"N#C[C@@H]1C[C@H](F)CN1C(=O)CN1CC[C@H](Nc2cc(F)c3ncccc3c2)C1 [Example 278, (2S,4S)-4-fluoro-1-[2-[(3S)-3-[(8-fluoro-6-quinolyl)amino]pyrrolidin-1-yl]acetyl]pyrrolidine-2-carbonitrile]"
614,254,1.5,637,398,"N#C[C@@H]1C[C@H](F)CN1C(=O)CN1CC[C@H](Nc2cc(Cl)c3ncccc3c2)C1 [Example 279, (2S,4S)-4-fluoro-1-[2-[(3S)-3-[(8-chloro-6-quinolyl)amino]pyrrolidin-1-yl]acetyl]pyrrolidine-2-carbonitrile]"
4850,3470,5.8,5060,241,"CN(C)C(=O)c1ccc(N[C@H]2CCN(CC(=O)N3C[C@@H](F)C[C@H]3C#N)C2)c2cccnc12 [Example 282, N,N-dimethyl-5-[[(3S)-1-[2-oxo-2-[(2S,4S)-2-cyano-4-fluoro-pyrrolidin-1-yl]ethyl]pyrrolidin-3-yl]amino]quinoline-8-carboxamide]"
1640,2390,10.6,574,932,"CN(C(=O)c1ccc(N[C@H]2CCN(CC(=O)N3C[C@@H](F)C[C@H]3C#N)C2)c2cccnc12)c1ccccc1 [Example 284, N-methyl-N-phenyl-5-[[(3S)-1-[2-oxo-2-[(2S,4S)-2-cyano-4-fluoro-pyrrolidin-1-yl]ethyl]pyrrolidin-3-yl]amino]quinoline-8-carboxamide]"
1080,2500,3.9,2450,333,"CN(Cc1ccccc1)C(=O)c1ccc(N[C@H]2CCN(CC(=O)N3C[C@@H](F)C[C@H]3C#N)C2)c2cccnc12 [Example 285, N-benzyl-N-methyl-5-[[(3S)-1-[2-oxo-2-[(2S,4S)-2-cyano-4-fluoro-pyrrolidin-1-yl]ethyl]pyrrolidin-3-yl]amino]quinoline-8-carboxamide]"
371,5180,1.3,1470,163,"N#C[C@@H]1C[C@H](F)CN1C(=O)CN1CC[C@H](Nc2ccc(C(=O)Nc3ccncc3)c3ncccc23)C1 [Example 292, N-(4-pyridyl)-5-[[(3S)-1-[2-oxo-2-[(2S,4S)-2-cyano-4-fluoro-pyrrolidin-1-yl]ethyl]pyrrolidin-3-yl]amino]quinoline-8-carboxamide]"
